The target in this experiment is recombinant human Cathepsin S (Homo sapiens, UniProt P25774). The experiment can be described thus: Cathepsin S assay: inhibition of recombinant human cathepsin S, fluorogenic substrate Z-Val-Val-Arg-AMC. It is filed as biochemical. On the procedure:
Cathepsin S Assay Procedure
To a 384 well microtitre plate is added 10 μl of a 100 μM solution of test compound in assay buffer (110 mM sodium acetate pH5.5, 5 mM EDTA, 5 mM dithiothreitol) with 10% dimethylsulfoxide (DMSO), plus 20 μl of 250 μM solution of the substrate
Z-Val-Val-Arg-AMC (7-amido-coumarine derivative of the tripeptide N-benzyloxycarbonyl-Val-Val-Arg-OH) in assay buffer and 45 μl of assay buffer. 25 μl of a 2 mg/l solution of activated recombinant human cathepsin S, in assay buffer, is then added to the well, yielding a final inhibitor concentration of 10 μM. Enzyme activity is determined by measuring the fluorescence of the liberated aminomethylcoumarin at […] using 390 nm excitation, at 20 minutes. Percentage enzyme activity is calculated by comparison of this activity to that of a solution containing no inhibitor.

Sequence of recombinant human Cathepsin S (P25774 115-331): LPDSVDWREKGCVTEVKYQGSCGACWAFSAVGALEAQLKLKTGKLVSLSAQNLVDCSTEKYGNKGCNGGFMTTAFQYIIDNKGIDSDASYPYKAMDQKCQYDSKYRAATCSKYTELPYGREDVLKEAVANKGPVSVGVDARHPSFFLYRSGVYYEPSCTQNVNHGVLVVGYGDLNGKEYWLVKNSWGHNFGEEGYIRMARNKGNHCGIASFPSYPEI

In general, IC50 refers to the concentration at which inhibition is half-maximal. As for `Cn1cnc2c(C#N)nc(-c3ccc(OCCCO)c(C(F)(F)F)c3)cc21` [Example 1], the IC50 was below 100 nM.

In the case of `Cn1cnc2c(C#N)nc(-c3ccc(OCCCN4CCNC(C)(C)C4)c(C(F)(F)F)c3)cc21` [Example 4b, 6-{4-[3-(3,3-Dimethylpiperazin-1-yl)-propoxy]-3-(trifluoromethyl)-phenyl}-1-methyl-1H-imidazo[4,5-c]pyridine-4-carbonitrile], the 50% inhibitory concentration (IC50) was below 100 nM. `CCN(CC)CCCOc1ccc(-c2cc3c(ncn3C)c(C#N)n2)cc1C(F)(F)F` [Example 2u, 6-[4-(3-N,N-Diethylamino-propoxy)-3-(trifluoromethyl)-phenyl]-1-methyl-1H-imidazo[4,5-d]pyridine-4-carbonitrile]: the IC50 was below 100 nM.

Turning to `Cn1cnc2c(C#N)nc(-c3ccc(OCCCN4CCCC4)c(C(F)(F)F)c3)cc21` [Example 2c, 1-Methyl-6-[4-(3-pyrrolidin-1-ylpropoxy)-3-(trifluoromethyl)-phenyl]-1H-imidazo[4,5-c]pyridine-4-carbonitrile], the concentration for half-maximal inhibition (IC50) is below 100 nM. In the case of `Cn1cnc2c(C#N)nc(-c3ccc(OCc4ccccn4)c(C(F)(F)F)c3)cc21` [Example 13c, 1-Methyl-6-[4-(pyridin-2-yl-methoxy)-3-(trifluoromethyl)-phenyl]-1H-imidazo[4,5-c]pyridine-4-carbonitrile], the IC50 is below 100 nM. Take `CCN1CCN(CCCOc2ccc(-c3cc4c(ncn4C)c(C#N)n3)cc2C(F)(F)F)CC1` [Example 4f, 6-{4-[3-(4-Ethylpiperazin-1-yl)-prooxy]-3-(trifluoromethyl)-phenyl}-1-methyl-1H-imidazo[4,5-c]pyridine-4-carbonitrile]: the IC50 was below 100 nM. For `CN1CCN(CCCOc2ccc(-c3cc4c(ncn4C)c(C#N)n3)cc2C(F)(F)F)CC1(C)C` [Example 4a, 1-Methyl-6-{3-(trifluoromethyl)-4-[3-(3,3,4-trimethylpiperazin-1-yl)-propoxy]-phenyl}-1H-imidazo[4,5-c]pyridine-4-carbonitrile] the value was below 100 nM; for `CN1CCC2(CC1)NC(=O)N(CCOc1ccc(-c3cc4c(ncn4C)c(C#N)n3)cc1C(F)(F)F)C2=O` [Example 11, 1-Methyl-6-{4-[2-(8-methyl-2,4-dioxo-1,3,8-triaza-spiro[4.5]dec-3-yl)-ethoxy]-3-(trifluoromethyl)-phenyl}-1H-imidazo[4,5-c]pyridine-4-carbonitrile], below 100 nM; for `CCN1CCN(CCCOc2ccc(-c3cc4[nH]cnc4c(C#N)n3)cc2C(F)(F)F)CC1` [Example 20f], below 100 nM. For `Cn1cnc2c(C#N)nc(-c3ccc(OCCN4C(=O)NC5(CCNCC5)C4=O)c(C(F)(F)F)c3)cc21` [Example 12, 6-(4-[2-(2,4-Dioxo-1,3,8-triaza-spiro[4.5]dec-3-yl)-ethoxy]-3-(trifluoromethyl)-phenyl]-1-methyl-1H-imidazo[4,5-c]pyridine-4-carbonitrile] the value was below 100 nM. Consider `CN1CCN(CCCOc2ccc(-c3cc4c(ncn4C)c(C#N)n3)cc2C(F)(F)F)CC1` [Example 4e, 1-Methyl-6-{4-[3-(4-methylpiperazin-1-yl)-propoxy]-3-(trifluoromethyl)-phenyl}-1H-imidazo[4,5-c]pyridine-4-carbonitrile], for which the concentration for half-maximal inhibition (IC50) was below 100 nM. Take `CCc1nccn1CCCOc1ccc(-c2cc3c(ncn3C)c(C#N)n2)cc1C(F)(F)F` [Example 7b, 6-{4-[3-(2-Ethyl-imidazol-1-yl)-propoxy]-3-(trifluoromethyl)-phenyl}-1-methyl-1H-imidazo[4,5-c]pyridine-4-carbonitrile]: the IC50 is below 100 nM. For the compound `C[C@@H]1CN(CCOc2ccc(-c3cc4c(ncn4C)c(C#N)n3)cc2C(F)(F)F)C[C@H](C)N1` [Example 9d, 6-{4-[2-(cis-3,5-dimethyl-piperazin-1-yl)-ethoxy]3-(trifluoromethyl)-phenyl}-1-methyl-1H-imidazo[4,5-c]pyridine-4-carbonitrile], the 50% inhibitory concentration (IC50) is below 100 nM. With `CNC(=O)C1CCN(CCCOc2ccc(-c3cc4c(ncn4C)c(C#N)n3)cc2C(F)(F)F)CC1` [Example 5a, 1-Methyl-6-(4-{3-[4-(N-methylaminocarbonyl)-piperidin-1-yl]-propoxy}-3-(trifluoromethyl)-phenyl)-1H-imidazo[4,5-c]pyridine-4-carbonitrile], the 50% inhibitory concentration (IC50) was below 100 nM. On to `CN(C)CCCOc1ccc(-c2cc3c(ncn3C)c(C#N)n2)cc1C(F)(F)F` [Example 2a, 6-[4-(3-Dimethylaminopropoxy)-3-(trifluoromethyl)-phenyl]-1-methyl-1H-imidazo[4,5-g]pyridine-4-carbonitrile], for which the IC50 is below 100 nM.

Source of the values: patent US7932251B2, “6-phenyl-1H-imidazo[4,5-c]pyridine-4-carbonitrile derivatives” (priority 2007, dated 2011).
